In brackets after ≈: the same amount, converted by molar mass. Where two headings read alike, the source gives them in different places.
Experiments:
[1] = test system: Mycobacterium tuberculosis wild-type H37Rv strain; settings: cited from earlier work; for pMIC (pMICExp): –Log of MIC on M. tuberculosis
[2] = test system: Mycobacterium tuberculosis wild-type H37Rv strain (ATCC 27294); assay: microplate Alamar blue assay (MABA), anti-mycobacterial activity; assay type: cell-based
in vitro = settings: mouse
[3] = test system: macrophage cell line J774 (ATCC TIB-67)
[4] = test system: MTB wild-type H37Rv strain; parameters: method as in PMID 15591164; settings: cited from earlier work
MTB MDR strains = settings: cited from earlier work
[5] = Mosmann's MTT cell viability (cytotoxicity) assay; settings: mouse
[6] = M. tuberculosis H37Rv, MABA, read-out: MIC
[7] = series D, –Log of MIC of Table 1, read-out: pMIC (pMICExp) (converted)

Clc1ccc2c(N/N=C/c3ccc(Br)cc3)ccnc2c1 [B05]
pMIC (pMICExp) ([1]; series B): 5.16

Clc1ccc2c(NCCNc3ccccc3)ccnc2c1 [A05]
pMIC (pMICExp) ([1]; series A): 3.77

NCCCCCCCCNc1ccnc2cc(Cl)ccc12 [A07]
pMIC (pMICExp) ([1]; series A): 4.69

Oc1ccc(C=NNc2ccnc3cc(Cl)ccc23)cc1O [D03]
MIC [2, 6]: 319 µM (≈ 100 µg/mL) | MIC [2, 7]: 316 µM | viability at 48 h, 2.5 µg/mL (in vitro): 78% | viability at 48 h, 25 µg/mL (in vitro): 35% | viability at 48 h, 100 µg/mL (in vitro): 72%

Clc1ccc2c(N/N=C/c3cccs3)ccnc2c1 [C04]
pMIC (pMICExp) ([1]; series C): 4.96

Clc1ccc2c(N/N=C/c3cccc(Br)c3)ccnc2c1 [B04]
pMIC (pMICExp) ([1]; series B): 5.06

CCCNCCNc1ccnc2cc(Cl)ccc12 [A03]
pMIC (pMICExp) ([1]; series A): 3.42

Clc1ccc2c(N/N=C/c3c(Cl)cccc3Cl)ccnc2c1 [D01]
MIC [2, 6]: 143 µM (≈ 50 µg/mL) | MIC [2, 7]: 141 µM | Cell Viability (%)/Dose (µg/mL) 2.5 [3]: did not show a significant cytotoxic profile | viability at 48 h, 2.5 µg/mL (in vitro): 100% | viability at 48 h, 25 µg/mL (in vitro): 90% | viability at 48 h, 100 µg/mL (in vitro): 86%

Clc1ccc2c(N/N=C/c3ccccn3)ccnc2c1 [C07]
pMIC (pMICExp) ([1]; series C): 4.35

COc1cc(/C=N/Nc2ccnc3cc(Cl)ccc23)cc(OC)c1OC [D08]
MIC [2, 6]: 16.8 µM (≈ 6.25 µg/mL) | MIC [2, 7]: 17 µM | viability at 48 h, 2.5 µg/mL (in vitro): 93% | viability at 48 h, 25 µg/mL (in vitro): 90% | viability at 48 h, 100 µg/mL (in vitro): 69%

O=[N+]([O-])c1ccc(/C=N/Nc2ccnc3cc(Cl)ccc23)s1 [C03]
pMIC (pMICExp) ([1]; series C): 5.43

COc1cccc(/C=N/Nc2ccnc3cc(Cl)ccc23)c1OC [D05]
MIC [2, 6]: 7.3 µM (≈ 2.5 µg/mL) | MIC [2, 7]: 7.24 µM | Cell Viability (%)/Dose (µg/mL) 2.5 [3]: did not show a significant cytotoxic profile | viability at 48 h, 2.5 µg/mL (in vitro): 98% | viability at 48 h, 25 µg/mL (in vitro): 97% | viability at 48 h, 100 µg/mL (in vitro): 85%

CNc1ccnc2cc(Cl)ccc12 [A09]
pMIC (pMICExp) ([1]; series A): 3.28

Clc1ccc2c(N/N=C/c3ccco3)ccnc2c1 [C02]
pMIC (pMICExp) ([1]; series C): 4.94

Clc1ccc2c(N/N=C/c3ccn[nH]3)ccnc2c1 [C06]
pMIC (pMICExp) ([1]; series C): 4.94

COc1ccc(/C=N/Nc2ccnc3cc(Cl)ccc23)cc1OC [D06]
MIC [2, 6]: 7.3 µM (≈ 2.5 µg/mL) | MIC [2, 7]: 7.24 µM | viability at 48 h, 2.5 µg/mL (in vitro): 65% | viability at 48 h, 25 µg/mL (in vitro): 8% | viability at 48 h, 100 µg/mL (in vitro): 20%

COc1nc2ccc(Br)cc2cc1[C@@H](c1ccccc1)[C@@](O)(CCN(C)C)c1cccc2ccccc12 [bedaquiline]
MIC [4]: ≤ 0.1 µM | MIC (MTB MDR strains): ≤ 0.5 µM

Oc1cccc(/C=N/Nc2ccnc3cc(Cl)ccc23)c1O [D02]
MIC [2, 6]: 79.7 µM (≈ 25 µg/mL) | MIC [2, 7]: 79.4 µM | viability at 48 h, 2.5 µg/mL (in vitro): 83% | viability at 48 h, 25 µg/mL (in vitro): 40% | viability at 48 h, 100 µg/mL (in vitro): 83%

ClCCCNc1ccnc2cc(Cl)ccc12 [A13]
pMIC (pMICExp) ([1]; series A): 3.71

CC(C)Nc1ccnc2cc(Cl)ccc12 [A11]
pMIC (pMICExp) ([1]; series A): 3.64

NCCCCCCCCCCNc1ccnc2cc(Cl)ccc12 [A08]
MIC ([1]; series A lead, H37Rv): 9.3 µM (≈ 3.11 µg/mL) | pMIC (pMICExp) ([1]; series A): 5.03

O=[N+]([O-])c1ccc(/C=N/Nc2ccnc3cc(Cl)ccc23)o1 [C01]
pMIC (pMICExp) ([1]; series C): 5.10

CCCNc1ccnc2cc(Cl)ccc12 [A10]
pMIC (pMICExp) ([1]; series A): 3.64

[N-]=[N+]=NCCNc1ccnc2cc(Cl)ccc12 [A02]
pMIC (pMICExp) ([1]; series A): 3.69

CCCCNc1ccnc2cc(Cl)ccc12 [A12]
pMIC (pMICExp) ([1]; series A): 4.27

Oc1ccc(O)c(/C=N/Nc2ccnc3cc(Cl)ccc23)c1 [D04]
MIC [2, 6]: 79.7 µM (≈ 25 µg/mL) | MIC [2, 7]: 79.4 µM | Cell Viability (%)/Dose (µg/mL) 2.5 [3]: did not show a significant cytotoxic profile | viability at 48 h, 2.5 µg/mL (in vitro): 100% | viability at 48 h, 25 µg/mL (in vitro): 100% | viability at 48 h, 100 µg/mL (in vitro): 70%

Clc1ccc2c(N/N=C/c3ccc[nH]3)ccnc2c1 [C05]
pMIC (pMICExp) ([1]; series C): 4.94

COc1ccc(C=NNc2ccnc3cc(Cl)ccc23)c(Cl)c1O [D09]
MIC [2, 6]: 17.3 µM (≈ 6.27 µg/mL) | MIC [2, 7]: 16.2 µM | viability at 48 h, 2.5 µg/mL (in vitro): 80% | viability at 48 h, 25 µg/mL (in vitro): 55% | viability at 48 h, 100 µg/mL (in vitro): 48%

ClCCNc1ccnc2cc(Cl)ccc12 [A01]
pMIC (pMICExp) ([1]; series A): 4.29

COc1ccc(OC)c(/C=N/Nc2ccnc3cc(Cl)ccc23)c1 [D07]
MIC [2, 6]: 18.3 µM (≈ 6.25 µg/mL) | MIC ([2]; read-out: pMIC (pMICExp)): 18.2 µM (≈ 6.22 µg/mL) | viability at 48 h, 2.5 µg/mL (in vitro): 40% | viability at 48 h, 25 µg/mL (in vitro): 22% | viability at 48 h, 100 µg/mL (in vitro): 47%

NCCCCCCNc1ccnc2cc(Cl)ccc12 [A06]
pMIC (pMICExp) ([1]; series A): 4.05

CC[C@@H](CO)NCCN[C@@H](CC)CO [EMB, ethambutol]
MIC [2, 6]: 15.3 µM (≈ 3.13 µg/mL) | viability at 48 h, 2.5 µg/mL [5]: 100% | viability at 48 h, 25 µg/mL [5]: 93% | viability at 48 h, 100 µg/mL [5]: 82%

From article PMC5490409, “Anti-Mycobacterial Evaluation of 7-Chloro-4-Aminoquinolines and Hologram Quantitative Structure–Activity Relationship (HQSAR) Modeling of Amino–Imino Tautomers” (Pharmaceuticals, 2017)
